For assay [1], the target named is Sodium- and chloride-dependent glycine transporter 1 (Homo sapiens, UniProt P48067). Briefly: Affinity On-target Cellular interaction: (Inhibition of radiolabelled [3H]glycine uptake in human SK-N-MC cells) EUB0002599a SLC6A9. Format: functional, cell-based. On the set-up: mode of action Inhibitor, recommended concentration 1 uM.
In assay [2] the target is T1, Peroxisome proliferator-activated receptor delta (Homo sapiens, UniProt Q03181).
T1 sequence (Q03181 whole entry): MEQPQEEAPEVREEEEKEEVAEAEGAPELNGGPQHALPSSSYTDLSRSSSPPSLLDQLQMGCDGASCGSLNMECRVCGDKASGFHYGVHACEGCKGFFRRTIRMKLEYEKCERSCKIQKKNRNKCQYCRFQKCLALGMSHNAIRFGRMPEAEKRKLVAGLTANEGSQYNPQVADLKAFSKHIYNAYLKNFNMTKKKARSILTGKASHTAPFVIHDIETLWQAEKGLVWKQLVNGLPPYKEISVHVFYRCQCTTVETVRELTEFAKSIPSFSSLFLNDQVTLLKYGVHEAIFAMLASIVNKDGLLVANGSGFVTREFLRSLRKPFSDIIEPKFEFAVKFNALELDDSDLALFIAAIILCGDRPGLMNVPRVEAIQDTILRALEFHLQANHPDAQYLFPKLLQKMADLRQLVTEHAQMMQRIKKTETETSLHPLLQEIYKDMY
Briefly: Affinity On-target Cellular interaction: (Reporter gene assay (HEK293T cells)) EUB0001483aCl PPARD. The assay is classed as functional, cell-based, HEK-293T. Also noted: mode of action Antagonist, recommended concentration 10 uM. A general note: Reporter assays use an easily measured gene product as a stand-in for the process of interest.

The target in another assay is Histone deacetylase 1 (Homo sapiens, UniProt Q13547). In words: Affinity On-target Cellular interaction: (Inhibition of enzyme activity in 293T cells transfected with vector alone) EUB0002519a HDAC1. Format: functional, cell-based, HEK-293T. On the set-up: mode of action Inhibitor, recommended concentration 1 uM.
In the next assay the target is Histone deacetylase 2 (Homo sapiens, UniProt Q92769). Briefly: Affinity On-target Cellular interaction: (Inhibition of enzyme activity in 293T cells transfected with vector alone) EUB0002519a HDAC2. Format: functional, cell-based, HEK-293T. On the set-up: mode of action Inhibitor, recommended concentration 1 uM.
For assay [3], the target named is Nuclear receptor subfamily 1 group D member 1 (Homo sapiens, UniProt P20393). Briefly: Affinity On-target Cellular interaction: (Reporter gene assay (HEK293T cells)) EUB0001153a NR1D1. Format: functional, cell-based, HEK-293T. On the set-up: mode of action Antagonist, recommended concentration 10 uM.
The target in assay [4] is T2, Nuclear receptor ROR-beta (Homo sapiens, UniProt Q92753).
T2 sequence (Q92753 whole entry): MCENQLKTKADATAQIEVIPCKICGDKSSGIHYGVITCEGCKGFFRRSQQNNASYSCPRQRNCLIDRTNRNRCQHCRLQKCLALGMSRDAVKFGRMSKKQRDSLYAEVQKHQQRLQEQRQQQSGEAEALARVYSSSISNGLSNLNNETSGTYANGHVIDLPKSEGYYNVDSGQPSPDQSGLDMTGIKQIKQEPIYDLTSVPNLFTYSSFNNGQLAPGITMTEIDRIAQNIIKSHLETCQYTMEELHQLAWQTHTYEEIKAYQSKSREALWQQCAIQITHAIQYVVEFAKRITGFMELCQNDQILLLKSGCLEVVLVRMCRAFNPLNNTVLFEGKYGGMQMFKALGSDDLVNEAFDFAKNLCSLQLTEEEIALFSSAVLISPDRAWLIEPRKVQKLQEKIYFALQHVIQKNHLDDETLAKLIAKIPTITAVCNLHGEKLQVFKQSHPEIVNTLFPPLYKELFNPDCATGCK
In words: Affinity On-target Cellular interaction: (Reporter gene assay (HEK293T cells)) EUB0001161a RORB. The assay is classed as functional, cell-based, HEK-293T. Also noted: mode of action Antagonist, recommended concentration 10 uM.

The target in assay [5] is Sodium/glucose cotransporter 2 (Homo sapiens, UniProt P31639). In words: Affinity On-target Cellular interaction: (AMG uptake assay in presence of 25% human plasma, 293.ETN cells) EUB0002515a SLC5A2. Also noted: mode of action Inhibitor, recommended concentration 1 uM. The assay is classed as functional, HEK293.
In assay [6] the target is T3, Oxysterols receptor LXR-beta (Homo sapiens, UniProt P55055).
T3 sequence (P55055 whole entry): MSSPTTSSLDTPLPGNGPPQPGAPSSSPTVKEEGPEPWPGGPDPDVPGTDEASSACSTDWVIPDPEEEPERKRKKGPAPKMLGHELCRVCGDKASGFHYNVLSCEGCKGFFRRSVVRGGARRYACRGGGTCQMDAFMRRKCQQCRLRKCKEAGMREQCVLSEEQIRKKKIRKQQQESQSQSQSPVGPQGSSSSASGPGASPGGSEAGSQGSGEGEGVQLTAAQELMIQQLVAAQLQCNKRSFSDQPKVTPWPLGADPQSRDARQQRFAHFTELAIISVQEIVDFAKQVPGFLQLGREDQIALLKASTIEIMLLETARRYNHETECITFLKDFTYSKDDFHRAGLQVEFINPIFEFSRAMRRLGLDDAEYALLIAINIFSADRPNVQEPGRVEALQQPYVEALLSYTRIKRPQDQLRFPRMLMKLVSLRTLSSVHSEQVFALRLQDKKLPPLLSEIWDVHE
In words: Affinity On-target Cellular interaction: (Reporter gene assay (HEK293T cells)) EUB0001166a NR1H2. Format: functional, cell-based, HEK-293T. On the set-up: mode of action Agonist, recommended concentration 1 uM.

Assay [7] has as its target T4, Oxysterols receptor LXR-alpha (Homo sapiens, UniProt Q13133).
T4 sequence (Q13133 whole entry): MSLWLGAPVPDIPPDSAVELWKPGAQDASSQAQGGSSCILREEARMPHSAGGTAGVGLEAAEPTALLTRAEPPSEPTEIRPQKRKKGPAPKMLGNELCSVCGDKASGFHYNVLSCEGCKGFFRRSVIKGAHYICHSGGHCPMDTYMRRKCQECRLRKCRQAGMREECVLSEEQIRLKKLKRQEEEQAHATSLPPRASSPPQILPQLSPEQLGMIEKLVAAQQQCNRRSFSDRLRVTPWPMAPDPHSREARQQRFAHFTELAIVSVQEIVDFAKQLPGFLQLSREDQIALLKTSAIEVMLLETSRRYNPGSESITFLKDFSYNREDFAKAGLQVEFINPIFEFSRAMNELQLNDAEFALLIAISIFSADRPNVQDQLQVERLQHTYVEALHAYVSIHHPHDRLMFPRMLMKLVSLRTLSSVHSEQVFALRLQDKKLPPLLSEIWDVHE
Briefly: Affinity On-target Cellular interaction: (Reporter gene assay (HEK293T cells)) EUB0001166a NR1H3. Format: functional, cell-based, HEK-293T. Also noted: mode of action Agonist, recommended concentration 1 uM.

For assay [8], the target named is T5, Nuclear receptor ROR-alpha (Homo sapiens, UniProt P35398). In words: Affinity On-target Cellular interaction: (Reporter gene assay (HEK293T cells)) EUB0001158a RORA. Format: functional, cell-based, HEK-293T. On the set-up: mode of action Inverse Agonist, recommended concentration 1 uM.
For assay [9], the target named is T2, Nuclear receptor ROR-beta. Briefly: Affinity On-target Cellular interaction: (Reporter gene assay (HEK293T cells)) EUB0001158a RORB. The assay is classed as functional, cell-based, HEK-293T. Also noted: mode of action Inverse Agonist, recommended concentration 1 uM.
For assay [10], the target named is T6, Nuclear receptor ROR-gamma (Homo sapiens, UniProt P51449).
T6 sequence (P51449 whole entry): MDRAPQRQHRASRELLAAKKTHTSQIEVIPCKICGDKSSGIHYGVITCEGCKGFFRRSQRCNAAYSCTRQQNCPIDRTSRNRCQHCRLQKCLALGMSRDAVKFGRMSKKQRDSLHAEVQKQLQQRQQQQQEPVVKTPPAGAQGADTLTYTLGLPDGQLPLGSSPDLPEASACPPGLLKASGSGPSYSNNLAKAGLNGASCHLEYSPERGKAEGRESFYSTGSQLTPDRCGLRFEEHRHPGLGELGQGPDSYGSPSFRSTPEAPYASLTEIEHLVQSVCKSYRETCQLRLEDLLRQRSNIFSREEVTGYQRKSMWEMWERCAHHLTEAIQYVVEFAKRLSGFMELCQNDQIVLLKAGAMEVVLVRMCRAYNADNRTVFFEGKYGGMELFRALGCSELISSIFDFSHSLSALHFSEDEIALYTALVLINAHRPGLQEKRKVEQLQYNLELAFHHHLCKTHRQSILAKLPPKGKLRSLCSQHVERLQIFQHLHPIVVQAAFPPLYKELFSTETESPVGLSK

The target of assay [11] is Nuclear receptor subfamily 1 group I member 2 (Homo sapiens, UniProt O75469). In words: Affinity On-target Cellular interaction: (Reporter gene assay (HEK293T cells)) EUB0002359a NR1I2. On the set-up: mode of action Agonist, recommended concentration 1 uM. The assay is classed as functional, cell-based, HEK-293T.
Assay [12] has as its target T5, Nuclear receptor ROR-alpha. In words: Affinity On-target Cellular interaction: (Reporter gene assay (HEK293T cells)) EUB0001157a RORA. Format: functional, cell-based, HEK-293T. On the set-up: mode of action Inverse Agonist, recommended concentration 10 uM.
Assay [13] has as its target T2, Nuclear receptor ROR-beta. Briefly: Affinity On-target Cellular interaction: (Reporter gene assay (HEK293T cells)) EUB0001157a RORB. The assay is classed as functional, cell-based, HEK-293T. Also noted: mode of action Inverse Agonist, recommended concentration 10 uM.
Assay [14] has as its target T6, Nuclear receptor ROR-gamma. In words: Affinity On-target Cellular interaction: (Reporter gene assay (HEK293T cells)) EUB0001157a RORC. Format: functional, cell-based, HEK-293T. Also noted: mode of action Inverse Agonist, recommended concentration 10 uM.
The target in assay [15] is Nuclear receptor subfamily 1 group D member 2 (Homo sapiens, UniProt Q14995). In words: Affinity On-target Cellular interaction: (Reporter gene assay (HEK293T cells)) EUB0001152a NR1D2. The assay is classed as functional, cell-based, HEK-293T. Also noted: mode of action Agonist, recommended concentration 10 uM.
Sequence of Nuclear receptor subfamily 1 group D member 2 (Q14995 whole entry): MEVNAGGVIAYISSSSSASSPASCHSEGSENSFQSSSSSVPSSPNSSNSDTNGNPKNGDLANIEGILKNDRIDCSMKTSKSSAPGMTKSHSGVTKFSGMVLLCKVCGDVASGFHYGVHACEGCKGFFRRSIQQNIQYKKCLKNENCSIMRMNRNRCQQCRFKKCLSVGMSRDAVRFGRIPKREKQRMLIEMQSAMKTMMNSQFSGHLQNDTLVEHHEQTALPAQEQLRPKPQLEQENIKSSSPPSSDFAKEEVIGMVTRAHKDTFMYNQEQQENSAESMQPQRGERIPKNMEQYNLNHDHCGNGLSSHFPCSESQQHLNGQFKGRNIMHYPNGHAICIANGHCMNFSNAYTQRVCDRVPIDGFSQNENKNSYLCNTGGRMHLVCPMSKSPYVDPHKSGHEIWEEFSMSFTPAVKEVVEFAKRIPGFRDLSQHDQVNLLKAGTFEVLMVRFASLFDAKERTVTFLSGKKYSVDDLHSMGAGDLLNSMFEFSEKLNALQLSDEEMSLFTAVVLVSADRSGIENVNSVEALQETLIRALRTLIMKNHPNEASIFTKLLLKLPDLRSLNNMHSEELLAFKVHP

T5 sequence (P35398 whole entry): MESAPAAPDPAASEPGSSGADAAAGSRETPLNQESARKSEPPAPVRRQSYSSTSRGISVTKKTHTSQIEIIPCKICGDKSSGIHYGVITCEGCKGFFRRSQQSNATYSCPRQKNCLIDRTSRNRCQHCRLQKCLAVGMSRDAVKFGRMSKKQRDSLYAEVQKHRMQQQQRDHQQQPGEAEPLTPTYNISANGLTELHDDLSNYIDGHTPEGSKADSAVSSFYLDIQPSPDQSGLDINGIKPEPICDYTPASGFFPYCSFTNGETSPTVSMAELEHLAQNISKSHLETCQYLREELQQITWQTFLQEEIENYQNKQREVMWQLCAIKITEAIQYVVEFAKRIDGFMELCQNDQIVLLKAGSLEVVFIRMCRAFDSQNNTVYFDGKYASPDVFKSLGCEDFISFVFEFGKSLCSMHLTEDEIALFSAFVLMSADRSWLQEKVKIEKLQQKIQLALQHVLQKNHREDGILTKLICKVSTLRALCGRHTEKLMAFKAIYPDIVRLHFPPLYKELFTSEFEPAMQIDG
Sequence of Histone deacetylase 2 (Q92769 whole entry): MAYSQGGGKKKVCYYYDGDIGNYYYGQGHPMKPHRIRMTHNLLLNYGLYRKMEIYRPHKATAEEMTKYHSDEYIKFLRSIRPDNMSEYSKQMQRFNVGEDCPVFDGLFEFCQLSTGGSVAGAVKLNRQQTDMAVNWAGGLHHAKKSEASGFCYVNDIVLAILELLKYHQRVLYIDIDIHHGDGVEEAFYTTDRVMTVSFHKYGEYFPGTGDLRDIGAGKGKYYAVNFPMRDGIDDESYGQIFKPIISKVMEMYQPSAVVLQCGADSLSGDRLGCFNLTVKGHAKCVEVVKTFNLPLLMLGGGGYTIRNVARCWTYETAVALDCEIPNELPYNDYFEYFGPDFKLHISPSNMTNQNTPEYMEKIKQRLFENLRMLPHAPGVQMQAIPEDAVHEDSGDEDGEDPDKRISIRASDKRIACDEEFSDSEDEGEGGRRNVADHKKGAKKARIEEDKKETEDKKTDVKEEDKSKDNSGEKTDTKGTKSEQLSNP
Sequence of Sodium/glucose cotransporter 2 (P31639 whole entry): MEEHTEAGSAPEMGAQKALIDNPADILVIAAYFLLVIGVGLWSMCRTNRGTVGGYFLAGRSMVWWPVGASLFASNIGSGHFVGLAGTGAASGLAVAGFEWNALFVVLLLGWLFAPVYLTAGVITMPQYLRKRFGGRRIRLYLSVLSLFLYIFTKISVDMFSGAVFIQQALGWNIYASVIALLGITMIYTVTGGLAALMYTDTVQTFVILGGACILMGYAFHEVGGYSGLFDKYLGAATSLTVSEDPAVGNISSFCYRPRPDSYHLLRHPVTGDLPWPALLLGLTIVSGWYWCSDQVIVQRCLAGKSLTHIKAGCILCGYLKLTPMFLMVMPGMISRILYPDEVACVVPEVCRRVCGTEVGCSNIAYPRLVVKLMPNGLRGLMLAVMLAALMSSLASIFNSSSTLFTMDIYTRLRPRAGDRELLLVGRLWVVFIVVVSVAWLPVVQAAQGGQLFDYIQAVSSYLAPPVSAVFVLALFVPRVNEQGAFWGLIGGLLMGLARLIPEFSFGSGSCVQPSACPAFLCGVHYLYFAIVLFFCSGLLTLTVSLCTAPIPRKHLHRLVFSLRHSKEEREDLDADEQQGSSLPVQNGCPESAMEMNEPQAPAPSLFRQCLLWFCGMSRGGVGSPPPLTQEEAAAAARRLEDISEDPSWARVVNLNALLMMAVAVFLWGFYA
Sequence of Nuclear receptor subfamily 1 group I member 2 (O75469 whole entry): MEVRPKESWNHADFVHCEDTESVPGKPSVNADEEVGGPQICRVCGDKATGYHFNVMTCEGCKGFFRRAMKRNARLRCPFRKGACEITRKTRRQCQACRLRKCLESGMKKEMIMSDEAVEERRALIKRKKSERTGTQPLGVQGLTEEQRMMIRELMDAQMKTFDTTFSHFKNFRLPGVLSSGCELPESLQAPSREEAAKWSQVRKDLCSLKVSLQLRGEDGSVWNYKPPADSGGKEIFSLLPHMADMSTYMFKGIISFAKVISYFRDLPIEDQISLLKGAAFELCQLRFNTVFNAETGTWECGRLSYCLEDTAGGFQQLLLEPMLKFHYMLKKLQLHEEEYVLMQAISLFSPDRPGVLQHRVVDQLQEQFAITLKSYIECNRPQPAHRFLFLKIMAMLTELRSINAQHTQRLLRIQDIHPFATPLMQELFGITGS
Sequence of Nuclear receptor subfamily 1 group D member 1 (P20393 whole entry): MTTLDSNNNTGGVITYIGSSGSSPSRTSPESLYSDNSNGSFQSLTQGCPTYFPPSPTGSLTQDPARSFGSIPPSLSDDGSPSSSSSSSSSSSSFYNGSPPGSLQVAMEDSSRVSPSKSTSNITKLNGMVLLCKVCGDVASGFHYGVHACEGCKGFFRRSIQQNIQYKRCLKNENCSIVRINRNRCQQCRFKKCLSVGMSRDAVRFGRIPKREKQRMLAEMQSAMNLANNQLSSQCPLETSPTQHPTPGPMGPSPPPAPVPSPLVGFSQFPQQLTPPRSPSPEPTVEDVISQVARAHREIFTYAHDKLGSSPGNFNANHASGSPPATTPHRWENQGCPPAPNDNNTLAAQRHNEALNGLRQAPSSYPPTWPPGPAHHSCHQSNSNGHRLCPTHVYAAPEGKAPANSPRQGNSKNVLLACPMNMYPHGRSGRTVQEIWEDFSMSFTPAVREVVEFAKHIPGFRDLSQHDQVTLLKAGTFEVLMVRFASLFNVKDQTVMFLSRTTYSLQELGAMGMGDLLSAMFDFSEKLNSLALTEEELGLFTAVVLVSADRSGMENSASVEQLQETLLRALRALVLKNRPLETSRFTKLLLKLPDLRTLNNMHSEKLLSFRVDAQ
Sequence of Histone deacetylase 1 (Q13547 whole entry): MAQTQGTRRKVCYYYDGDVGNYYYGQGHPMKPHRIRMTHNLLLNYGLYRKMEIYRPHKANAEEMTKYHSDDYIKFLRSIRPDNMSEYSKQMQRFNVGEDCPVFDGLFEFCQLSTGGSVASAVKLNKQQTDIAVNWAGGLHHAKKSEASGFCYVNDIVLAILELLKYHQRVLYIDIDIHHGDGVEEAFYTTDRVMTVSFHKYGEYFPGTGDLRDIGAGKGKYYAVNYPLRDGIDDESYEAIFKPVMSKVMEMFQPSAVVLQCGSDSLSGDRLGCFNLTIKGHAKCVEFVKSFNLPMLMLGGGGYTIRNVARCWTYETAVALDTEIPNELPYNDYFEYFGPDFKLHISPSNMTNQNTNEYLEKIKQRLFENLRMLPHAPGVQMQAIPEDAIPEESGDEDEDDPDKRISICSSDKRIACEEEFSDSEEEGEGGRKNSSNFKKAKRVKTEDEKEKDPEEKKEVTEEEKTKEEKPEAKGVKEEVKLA
Sequence of Sodium- and chloride-dependent glycine transporter 1 (P48067 whole entry): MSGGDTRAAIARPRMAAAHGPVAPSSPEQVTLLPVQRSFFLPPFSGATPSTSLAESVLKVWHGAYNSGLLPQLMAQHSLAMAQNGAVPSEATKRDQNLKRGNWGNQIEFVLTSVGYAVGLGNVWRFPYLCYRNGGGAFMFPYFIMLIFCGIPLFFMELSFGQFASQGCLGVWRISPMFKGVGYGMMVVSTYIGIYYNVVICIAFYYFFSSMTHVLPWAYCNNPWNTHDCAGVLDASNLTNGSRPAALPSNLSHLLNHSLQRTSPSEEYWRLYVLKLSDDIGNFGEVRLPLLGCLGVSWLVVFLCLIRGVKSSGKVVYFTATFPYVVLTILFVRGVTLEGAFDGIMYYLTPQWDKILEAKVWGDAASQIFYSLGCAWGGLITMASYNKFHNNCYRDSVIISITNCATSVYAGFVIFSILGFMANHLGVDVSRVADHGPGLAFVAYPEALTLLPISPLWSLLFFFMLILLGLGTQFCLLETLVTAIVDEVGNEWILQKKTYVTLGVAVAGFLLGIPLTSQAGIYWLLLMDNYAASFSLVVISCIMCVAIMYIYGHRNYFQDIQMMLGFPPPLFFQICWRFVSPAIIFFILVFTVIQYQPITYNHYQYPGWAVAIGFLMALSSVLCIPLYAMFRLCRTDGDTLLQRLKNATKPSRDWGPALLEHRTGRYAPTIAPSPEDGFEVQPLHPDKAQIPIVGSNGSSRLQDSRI

In general, IC50 refers to the concentration that inhibits the measured activity by half. In turn, `C[C@@H](Oc1ccc(S(C)(=O)=O)cc1C(=O)N1C[C@@H]2C[C@]2(c2cc(C(F)(F)F)on2)C1)C(F)(F)F` [ICLEPERTIN] yielded an IC50 in assay [1] of 5 nM.
In the case of `CN1CCN(c2ccc(/C=C(\C#N)c3ccccc3Br)cc2)CC1`, it took 1800 nM to reach half-maximal inhibition in [2] (IC50).
Consider `Nc1ccc(-c2cccs2)cc1NC(=O)c1ccc(NC=O)cc1`, for which the IC50 against Histone deacetylase 1 and against Histone deacetylase 2 was 300 nM each time.
For `CCOC(=O)C1Cc2ccccc2CN1C(=O)c1ccc(SC)s1` (configuration not stated), in assay [3], the 50% inhibitory concentration (IC50) was found to be 470 nM.
For the compound `COc1cc(O)c(C(CC(=O)N2C[C@H](C)C[C@H](C)C2)c2ccc3c(c2)OCO3)c(OC)c1` (some centres not stated), half-maximal inhibition in assay [4] (IC50) was put at 1300 nM.
For `OC[C@H]1O[C@@H](c2ccc(Cl)c(Cc3ccc(OCCOC4CC4)cc3)c2)[C@H](O)[C@@H](O)[C@@H]1O` [BEXAGLIFLOZIN], the IC50 in assay [5] was determined as 2 nM.
For orientation: EC50 means the concentration that produces a half-maximal response. Read a high EC50 as weaker potency. On to `CC(C)(O)c1cn(-c2ccc(-c3cccc(S(C)(=O)=O)c3)cc2)c(C(C)(C)c2ccccc2Cl)n1` [BMS-779788], for which the EC50 in assay [6] is 300 nM; in assay [7] it was 200 nM.
`CC(=O)Nc1nc(C)c(S(=O)(=O)Nc2ccc(C(O)(C(F)(F)F)C(F)(F)F)cc2)s1`: the results for the 50% inhibitory concentration (IC50) in assay [8], in assay [9] and in assay [10] were 900 nM, 1100 nM and 110 nM, respectively.
The compound `CC(C)c1c(CN(C)C(C)Cc2ccccc2)n(C)n(-c2ccccc2)c1=O` (configuration not stated) [FAMPROFAZONE] came in with an EC50 in assay [11] of 130 nM.
Consider `O=S(=O)(Nc1ccc(C(O)(C(F)(F)F)C(F)(F)F)cc1)c1cccs1`, for which the IC50 in assay [12] is 500 nM; in [13] it was 1500 nM; in assay [14], 3200 nM.
Compound `CCOC(=O)N1CCC(CN(Cc2ccc(Cl)cc2)Cc2ccc([N+](=O)[O-])s2)C1` (configuration not stated) [SR9009] had an EC50 in [15] of 11000 nM.
